{"source": "patent US4374139A", "about": "“Levorotatory N-substituted acylmorphinans useful as analgesic agents” (priority 1981, dated 1983)", "key": {"[1]": {"test_system": "mice exposed to radiant heat stimulus on the tail", "assay": "animal or person", "format": "in vivo, male mice (Charles River, CF-1/CD)", "excerpt": "(§1) The ED50 was the dose which reduced the total number of writhes by 50%. […] A modification of the tail flick test described by Dewey and Harris (in: S. Ehrenpreis and A. Neidle (eds.), Methods in Narcotics Research, Marcel Dekker, Inc., New York, 1975, pp. 101-108) was used to measure the tail flick reaction times following oral or subcutaneous administration of the compounds of formula I of the invention.\nMore specifically, groups of 10 male mice (Charles River, CF-1/CD, 18-22 gm) were placed in individual stainless steel, ventilated, cylindrical restrainers with their tails protruding through a hole at one end. The restraining tubes were positioned on a sliding platform so that each mouse, in turn, could be exposed to a high intensity lamp. The rays from the lamp were focused by means of a parabolic reflector directly on the tail. The intensity of the heat was adjusted by means of a rheostat so that untreated mice would responsed in approximately 2 to 4 seconds. When the endpoint response occurred (a sudden twitch of the tail, removing it from the path of the radiant heat stimulus), the experimenter stopped a reaction time clock. In the event that no response occurred within 10 seconds (the cutoff time), the tester terminated the trial and assigned a latency score of 10 seconds for that trial. The reaction time of each mouse was determined before and again 30,60,90 and 120 minutes after treatment.\nEach group of 10 mice was treated orally or subcutaneously with vehicle (normal saline) or with logarithmically spaced doses of the test compounds. For most compounds, four dose levels, which were studied in a single test session, were sufficient to provide a satisfactory estimate of the ED50. Occasionally, five or six does levels were needed. […] Because of this, some vehicle control groups and dosed groups consisted of a total of 20 mice, rather than 10.\n(§2) Doses were calculated as the salts of all the compounds. Injection volume was 0.1 ml/10 g body weight. For each test compound, ED 50 values were calculated separately for each test. Log dose regression analysis and Fieller's Theorem were used to compute the ED 50 and its 95 percent confidence limits. The analysis was performed on the tail flick latency scores of all mice that were treated with a test compound. For any given test, the average tail flick latency score of the vehicle control group was calculated and a latency value, Z, was derived from this, as follows: [formula] where the cutoff time was 10 seconds. […] The value of Z was entered as an interpolate into the regression analysis so that an ED50, defined as the dose that increased tail flick latencies by 50 percent of the maximum possible response, could be computed."}, "[2]": {"test_system": "mice exposed to intra-abdominally induced chemical pain", "assay": "animal or person", "format": "in vivo, mouse", "protocol": "as §1, §2"}, "[3]": {"details": "mouse, oral, dose that increased tail flick latencies by 50 percent of the maximum possible response, cutoff 10 seconds, doses as the salts, read-out: ED50 Tail Flick Oral"}, "[4]": {"details": "sc, mouse, subcutaneous, dose that increased tail flick latencies by 50 percent of the maximum possible response, cutoff 10 seconds, doses as the salts, read-out: ED50 Tail Flick Subcu."}, "[5]": {"details": "mouse, oral, dose which reduced the total number of writhes by 50%, doses as the salts, read-out: ED50 Writhing Oral"}, "[6]": {"details": "sc, mouse, subcutaneous, dose which reduced the total number of writhes by 50%, doses as the salts, read-out: ED50 Writhing Subcu."}, "[7]": {"details": "Mus musculus, po, read-out: ED50 Tail Flick Oral"}, "[8]": {"details": "Mus musculus, sc, read-out: ED50 Tail Flick Subcu."}, "[9]": {"details": "Mus musculus, po, read-out: ED50 Writhing Oral"}, "[10]": {"details": "Mus musculus, sc, read-out: ED50 Writhing Subcu."}}, "note": "Counter-ions that a name gives are not always drawn. Like-named read-outs stand apart in the source and are kept apart here.", "data": [{"smiles": "CCC(=O)c1ccc2c(c1)[C@@]13CCCC[C@H]1[C@@H](C2)N(C)CC3.Cl", "note": "[(-)-1-(17-methylmorphinan-3-yl)-1-propanone hydrochloride]", "values": [{"measurement": "ED50", "setting": "[1]; [3]", "result": 12, "unit": "mg/kg"}, {"measurement": "ED50", "setting": "[1]; [4]", "result": 2.3, "unit": "mg/kg"}, {"measurement": "ED50", "setting": "[2]; [5]", "result": 1.9, "unit": "mg/kg"}, {"measurement": "ED50", "setting": "[2]; [6]", "result": 0.22, "unit": "mg/kg"}]}, {"smiles": "CC(=O)c1ccc2c(c1)[C@@]13CCCC[C@H]1[C@@H](C2)N(CC=C(C)C)CC3.O.O=C(O)C(O)C(O)C(=O)O", "note": "[(-)-1-[17-(3-methyl-2-butenyl)morphinan-3-yl]ethanone d-tartrate monohydrate]", "values": [{"measurement": "ED50", "setting": "[1]; [7]", "result": 115, "unit": "mg/kg"}, {"measurement": "ED50", "setting": "[1]; [8]", "result": "~50", "unit": "mg/kg"}, {"measurement": "ED50", "setting": "[2]; [9]", "result": 43, "unit": "mg/kg"}, {"measurement": "ED50", "setting": "[2]; [10]", "result": 5.9, "unit": "mg/kg"}]}, {"smiles": "CC(=O)c1ccc2c(c1)[C@@]13CCCC[C@H]1[C@@H](C2)N(CCc1ccccc1)CC3", "note": "[(-)-1-[N-(2-phenethyl)morphinan-3-yl]ethanone d-tartrate hemihydrate]", "values": [{"measurement": "ED50", "setting": "[1]; [3]", "result": 10.4, "unit": "mg/kg"}, {"measurement": "ED50", "setting": "[1]; [4]", "result": 1.8, "unit": "mg/kg"}, {"measurement": "ED50", "setting": "[2]; [5]", "result": 1.2, "unit": "mg/kg"}, {"measurement": "ED50", "setting": "[2]; [6]", "result": 0.39, "unit": "mg/kg"}]}, {"smiles": "CC(=O)c1ccc2c(c1)[C@@]13CCCC[C@H]1[C@@H](C2)N(CC1CC1)CC3.Cl", "note": "[(-)-1-[N-(cyclopropylmethyl)morphinan-3-yl]-ethanone hydrochloride]", "values": [{"measurement": "ED50", "setting": "[1]; [3]", "result": 1.5, "unit": "mg/kg"}, {"measurement": "ED50", "setting": "[1]; [4]", "result": 2.3, "unit": "mg/kg"}, {"measurement": "ED50", "setting": "[2]; [5]", "result": 2.1, "unit": "mg/kg"}, {"measurement": "ED50", "setting": "[2]; [6]", "result": 0.18, "unit": "mg/kg"}]}, {"smiles": "CC(=O)c1ccc2c(c1)C[C@@H]1[C@@H]3CCCC[C@]23CCN1C.O=C(O)C(O)C(O)C(=O)O", "note": "[(-)-2-acetyl-N-methylmorphinan d-tartrate]", "values": [{"measurement": "ED50", "setting": "[1]; [7]", "result": 75, "unit": "mg/kg"}, {"measurement": "ED50", "setting": "[1]; [8]", "result": "> 50", "unit": "mg/kg"}, {"measurement": "ED50", "setting": "[2]; [9]", "result": 22.3, "unit": "mg/kg"}, {"measurement": "ED50", "setting": "[2]; [10]", "result": 4, "unit": "mg/kg"}]}, {"smiles": "CC(=O)c1ccc2c(c1)[C@@]13CCCC[C@H]1[C@@H](C2)N(CCC#N)CC3.Cl", "note": "[(-)-3-acetyl-17-morphinanpropanenitrile hydrochloride]", "values": [{"measurement": "ED50", "setting": "[1]; [3]", "result": 51.2, "unit": "mg/kg"}, {"measurement": "ED50", "setting": "[1]; [4]", "result": 6.1, "unit": "mg/kg"}, {"measurement": "ED50", "setting": "[2]; [5]", "result": 4.4, "unit": "mg/kg"}, {"measurement": "ED50", "setting": "[2]; [6]", "result": 0.57, "unit": "mg/kg"}]}, {"smiles": "CC(=O)c1ccc2c(c1)[C@@]13CCCC[C@H]1[C@@H](C2)N(CC1CCC1)CC3.Cl", "note": "[(-)-3-acetyl-N-cyclobutylmethylmorphinan hydrochloride]", "values": [{"measurement": "ED50", "setting": "[1]; [3]", "result": 27.6, "unit": "mg/kg"}, {"measurement": "ED50", "setting": "[1]; [4]", "result": 4.9, "unit": "mg/kg"}, {"measurement": "ED50", "setting": "[2]; [5]", "result": 5.7, "unit": "mg/kg"}, {"measurement": "ED50", "setting": "[2]; [6]", "result": 1.2, "unit": "mg/kg"}]}, {"smiles": "CC(=O)c1ccc2c(c1)[C@@]13CCCC[C@H]1[C@@H](C2)N(C)CC3.O=C(O)C(O)C(O)C(=O)O", "note": "[(-)-3-acetyl-N-methylmorphinan d-tartrate]", "values": [{"measurement": "ED50", "setting": "[1]; [7]", "result": 2, "unit": "mg/kg"}, {"measurement": "ED50", "setting": "[1]; [8]", "result": 3.9, "unit": "mg/kg"}, {"measurement": "ED50", "setting": "[2]; [9]", "result": 0.5, "unit": "mg/kg"}, {"measurement": "ED50", "setting": "[2]; [10]", "result": 0.08, "unit": "mg/kg"}]}, {"smiles": "CN1CC[C@]23CCCC[C@H]2[C@H]1Cc1ccc(C(=O)c2ccccc2)cc13.O=C(O)C(O)C(O)C(=O)O", "note": "[(-)-(17-methylmorphinan-3-yl)phenylmethanone d-tartrate]", "values": [{"measurement": "ED50", "setting": "[1]; [7]", "result": "> 200", "unit": "mg/kg"}, {"measurement": "ED50", "setting": "[1]; [8]", "result": "> 50", "unit": "mg/kg"}, {"measurement": "ED50", "setting": "[2]; [9]", "result": 35.5, "unit": "mg/kg"}, {"measurement": "ED50", "setting": "[2]; [10]", "result": 22.2, "unit": "mg/kg"}]}, {"smiles": "CN1CC[C@]23CCCC[C@H]2[C@H]1Cc1ccc(C(C)(C)O)cc13", "note": "[(-)-α,α-17-trimethylmorphinan-3-methanol hydrochloride]", "values": [{"measurement": "ED50", "setting": "[1]; [3]", "result": 12, "unit": "mg/kg"}, {"measurement": "ED50", "setting": "[1]; [4]", "result": 4.3, "unit": "mg/kg"}, {"measurement": "ED50", "setting": "[2]; [5]", "result": 2.5, "unit": "mg/kg"}, {"measurement": "ED50", "setting": "[2]; [6]", "result": 1.05, "unit": "mg/kg"}]}, {"smiles": "CC(O)c1ccc2c(c1)[C@@]13CCCC[C@H]1[C@@H](C2)N(C)CC3", "note": "(stereo partly drawn) [(-)-α-17-dimethylmorphinan-3-methanol hydrochloride]", "values": [{"measurement": "ED50", "setting": "[1]; [3]", "result": 1.1, "unit": "mg/kg"}, {"measurement": "ED50", "setting": "[1]; [4]", "result": 1.3, "unit": "mg/kg"}, {"measurement": "ED50", "setting": "[2]; [5]", "result": 0.36, "unit": "mg/kg"}, {"measurement": "ED50", "setting": "[2]; [6]", "result": 0.24, "unit": "mg/kg"}]}]}
